Measured values published in ChEMBL document CHEMBL5346921, “Discovery of novel benzamide derivatives bearing benzamidophenyl and phenylacetamidophenyl scaffolds as potential antitumor agents via targeting PARP-1” (Eur J Med Chem, 2023).
Active and inactive are the calls of the source. No cut-off for these calls is given here.

How the values were obtained:
DLD-1 = experiment: Antiproliferative activity against human DLD-1 cells assessed as reduction in cell viability incubated for 48 hrs by MTT assay; format: functional, cell-based; conditions: DLD-1, 48 h
[1] = Cytotoxicity against human NCM460 cells assessed as reduction in cell viability incubated for 48 hrs by MTT assay; format: toxicity, cell-based
[2] = Selectivity index, ratio of IC50 for cytotoxicity against human NCM460 cells to IC50 for antiproliferative activity against human HCT-116 cells; format: toxicity, cell-based; conditions: NCM460 cells and HCT-116 cells, read-out: Ratio IC50
[3] = molecular target: Poly [ADP-ribose] polymerase 2 (Homo sapiens, UniProt Q9UGN5); experiment: Inhibition of human PARP-2 by ELISA
Sequence of Poly [ADP-ribose] polymerase 2 (Q9UGN5 whole entry): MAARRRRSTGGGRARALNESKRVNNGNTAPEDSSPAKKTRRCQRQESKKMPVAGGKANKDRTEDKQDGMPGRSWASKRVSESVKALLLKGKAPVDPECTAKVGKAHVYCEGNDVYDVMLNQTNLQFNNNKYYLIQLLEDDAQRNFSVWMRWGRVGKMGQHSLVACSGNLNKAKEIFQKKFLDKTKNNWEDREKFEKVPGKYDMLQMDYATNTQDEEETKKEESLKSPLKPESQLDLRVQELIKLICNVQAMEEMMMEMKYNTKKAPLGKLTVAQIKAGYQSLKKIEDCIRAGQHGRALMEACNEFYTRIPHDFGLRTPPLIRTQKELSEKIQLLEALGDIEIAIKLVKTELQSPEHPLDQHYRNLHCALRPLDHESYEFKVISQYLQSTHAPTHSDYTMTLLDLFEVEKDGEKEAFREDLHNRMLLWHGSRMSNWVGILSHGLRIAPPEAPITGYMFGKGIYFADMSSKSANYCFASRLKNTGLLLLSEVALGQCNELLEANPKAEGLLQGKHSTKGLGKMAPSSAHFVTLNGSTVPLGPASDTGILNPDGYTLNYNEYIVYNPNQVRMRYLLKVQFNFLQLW

HCT-116 [4] = experiment: Inhibition of cell migration in human HCT-116 cells at 0.3 uM incubated for 24 hrs by wound healing assay; format: functional
HCT-116 [5] = experiment: Inhibition of cell migration in human HCT-116 cells at 1 uM incubated for 24 hrs by wound healing assay; format: functional
HCT-116 [6] = experiment: Inhibition of cell migration in human HCT-116 cells at 3 uM incubated for 24 hrs by wound healing assay; format: functional
HCT-116 [7] = experiment: Inhibition of cell migration in human HCT-116 cells at 0.3 uM incubated for 48 hrs by wound healing assay; format: functional
HCT-116 [8] = experiment: Induction of DNA double-strand breaks in human HCT-116 cells assessed as gammaH2AX accumulation incubated for 48 hrs by western blot analysis; format: functional, cell-based; conditions: dose 0.3-3 µM
HCT-116 [9] = experiment: Induction of DNA double strand breaks in human HCT-116 cells assessed as gammaH2AX accumulation at 3 uM incubated for 48 hrs by immunofluorescence analysis; format: functional, cell-based
HCT-116 [10] = experiment: Induction of cell cycle arrest in human HCT-116 cells assessed as accumulation of cells at G2/M phase at 0.3 uM incubated for 48 hrs by PI staining based flow cytometry (reference value: 24.7%); format: functional
HCT-116 [11] = experiment: Induction of cell cycle arrest in human HCT-116 cells assessed as accumulation of cells at S phase at 1.5 uM incubated for 48 hrs by PI staining based flow cytometry (reference value: 14.5%); format: functional
HCT-116 [12] = experiment: Induction of cell cycle arrest in human HCT-116 cells assessed as accumulation of cells at G0/G1 phase at 7.5 uM incubated for 48 hrs by PI staining based flow cytometry (reference value: 62.1%); format: functional
HCT-116 [13] = experiment: Induction of cell cycle arrest in human HCT-116 cells assessed as accumulation of cells at S phase at 7.5 uM incubated for 48 hrs by PI staining based flow cytometry (reference value: 14.5%); format: functional
HCT-116 [14] = experiment: Induction of cell cycle arrest in human HCT-116 cells assessed as accumulation of cells at G0/G1 phase at 0.3 uM incubated for 72 hrs by PI staining based flow cytometry (reference value: 57.2%); format: functional
HCT-116 [15] = experiment: Induction of cell cycle arrest in human HCT-116 cells assessed as accumulation of cells at S phase at 0.3 uM incubated for 72 hrs by PI staining based flow cytometry (reference value: 16.7%); format: functional
HCT-116 [16] = experiment: Induction of cell cycle arrest in human HCT-116 cells assessed as accumulation of cells at S phase at 1.5 uM incubated for 72 hrs by PI staining based flow cytometry (reference value: 16.7%); format: functional
HCT-116 [17] = experiment: Induction of cell cycle arrest in human HCT-116 cells assessed as accumulation of cells at S phase at 7.5 uM incubated for 72 hrs by PI staining based flow cytometry (reference value: 16.7%); format: functional
HCT-116 [18] = experiment: Induction of apoptosis in human HCT-116 cells assessed as early apoptotic cells at 0.3 uM incubated for 48 hrs by AnnexinV-FITC/PI staining based flow cytometry (reference value: 2.11%); format: functional
HCT-116 [19] = experiment: Induction of apoptosis in human HCT-116 cells assessed as early apoptotic cells at 1.5 uM incubated for 48 hrs by AnnexinV-FITC/PI staining based flow cytometry (reference value: 2.11%); format: functional
HCT-116 [20] = experiment: Induction of apoptosis in human HCT-116 cells assessed as late apoptotic cells at 1.5 uM incubated for 48 hrs by AnnexinV-FITC/PI staining based flow cytometry (reference value: 0%); format: functional
HCT-116 [21] = experiment: Induction of apoptosis in human HCT-116 cells assessed as necrotic cells at 1.5 uM incubated for 48 hrs by AnnexinV-FITC/PI staining based flow cytometry (reference value: 0%); format: functional
HCT-116 [22] = experiment: Induction of apoptosis in human HCT-116 cells assessed as viable cells at 7.5 uM incubated for 48 hrs by AnnexinV-FITC/PI staining based flow cytometry (reference value: 97.89%); format: functional; conditions: read-out: Activity
HCT-116 [23] = experiment: Induction of apoptosis in human HCT-116 cells assessed as early apoptotic cells at 7.5 uM incubated for 48 hrs by AnnexinV-FITC/PI staining based flow cytometry (reference value: 2.11%); format: functional
HCT-116 [24] = experiment: Induction of apoptosis in human HCT-116 cells assessed as late apoptotic cells at 7.5 uM incubated for 48 hrs by AnnexinV-FITC/PI staining based flow cytometry (reference value: 0%); format: functional
HCT-116 [25] = experiment: Induction of apoptosis in human HCT-116 cells assessed as early apoptotic cells at 0.3 uM incubated for 72 hrs by AnnexinV-FITC/PI staining based analysis (reference value: 1.05%); format: functional
HCT-116 [26] = experiment: Induction of apoptosis in human HCT-116 cells assessed as late apoptotic cells at 0.3 uM incubated for 72 hrs by AnnexinV-FITC/PI staining based analysis (reference value: 0%); format: functional
HCT-116 [27] = experiment: Induction of apoptosis in human HCT-116 cells assessed as necrotic cells at 0.3 uM incubated for 72 hrs by AnnexinV-FITC/PI staining based analysis (reference value: 0%); format: functional
HCT-116 [28] = experiment: Induction of apoptosis in human HCT-116 cells assessed as late apoptotic cells at 1.5 uM incubated for 72 hrs by AnnexinV-FITC/PI staining based analysis (reference value: 0%); format: functional
HCT-116 [29] = experiment: Induction of apoptosis in human HCT-116 cells assessed as necrotic cells at 7.5 uM incubated for 72 hrs by AnnexinV-FITC/PI staining based analysis (reference value: 0%); format: functional
HCT-116 [30] = experiment: Induction of mitochondrial membrane potential loss in human HCT-116 cells assessed as increase in monomer JC-1 level by measuring green fluorescence intensity at 3 uM incubated for 48 hrs by immunofluorescence analysis; format: functional, cell-based
HCT-116 [31] = experiment: Induction of mitochondrial membrane potential loss in human HCT-116 cells assessed as JC-1 aggregate level by measuring red fluorescence intensity at 1 uM incubated for 48 hrs by JC-1 staining based flow cytometry (reference value: 96.72%); format: functional
HCT-116 [32] = experiment: Induction of mitochondrial membrane potential loss in human HCT-116 cells assessed as JC-1 aggregate level by measuring red fluorescence intensity at 3 uM incubated for 48 hrs by JC-1 staining based flow cytometry (reference value: 96.72%); format: functional
HCT-116 [33] = experiment: Induction of apoptosis in human HCT-116 cells assessed as decrease in Bcl-2 protein expression incubated for 48 hrs by western blot analysis; format: functional, cell-based; conditions: dose 0.3-3 µM
HCT-116 [34] = experiment: cells; conditions: Homo sapiens, HCT-116, 48 h
SW480 = experiment: cells; conditions: Homo sapiens, SW480, 48 h
Description: Antiproliferative activity against human SW480 cells assessed as reduction in cell viability incubated for 48 hrs by MTT assay

SMILES: NC(=O)c1ccccc1OCc1cccc(NC(=O)c2ccc(Br)cc2)c1
- IC50 (DLD-1): 2830 nM
- IC50 at 48 h [1]: 487 µM
- selectivity ratio [2]: 1640
- IC50 [3]: 2.34 nM
- inhibition at 0.3 µM (HCT-116 [4]): 12.4%
- inhibition at 1 µM (HCT-116 [5]): 18%
- inhibition at 3 µM (HCT-116 [6]): 22.3%
- inhibition at 0.3 µM (HCT-116 [7]): 30.5%
- Activity (HCT-116 [8]): Dose-Dependent Effect
- Activity (HCT-116 [9]): Active
- Activity (HCT-116 [10]): 28.6%
- Activity (HCT-116 [11]): 12.5%
- Activity (HCT-116 [12]): 49.7%
- Activity (HCT-116 [13]): 10.4%
- Activity (HCT-116 [14]): 46.9%
- Activity (HCT-116 [15]): 22.4%
- Activity (HCT-116 [16]): 15.6%
- Activity (HCT-116 [17]): 20.3%
- Activity (HCT-116 [18]): 9.12%
- Activity (HCT-116 [19]): 22.69%
- Activity (HCT-116 [20]): 2.97%
- Activity (HCT-116 [21]): 1.38%
- viability at 7.5 µM (HCT-116 [22]): 57.4%
- Activity (HCT-116 [23]): 40.9%
- Activity (HCT-116 [24]): 1.19%
- Activity (HCT-116 [25]): 23.69%
- Activity (HCT-116 [26]): 0%
- Activity (HCT-116 [27]): 0%
- Activity (HCT-116 [28]): 0.26%
- Activity (HCT-116 [29]): 0.01%
- Activity (HCT-116 [30]): Active
- Activity (HCT-116 [31]): 85.84%
- Activity (HCT-116 [32]): 49.97%
- Activity (HCT-116 [33]): Dose-Dependent Effect
- IC50 (HCT-116 [34]): 300 nM
- IC50 (SW480): 33.7 µM
